Results on one compound are retold here after US5112992A, “Production of polycarboxylic acids with hafnium-activated cobalt catalyst” (Amoco Corporation, priority 1991, dated 1992).

Series [1] is described as follows: Metal remaining soluble in filtrate (pyromellitic acid) after durene oxidation.
Series [2] can be described thus: Solubility of hafnium and zirconium tetrabromides in acetic acid-water mixtures in presence of trimellitic acid.
Procedure: Solubility of hafnium compounds, i.e., hafnium bromide, was determined in acetic acid-water mixtures in the presence of trimellitic acid and pyromellitic acid. Hafnium tetrabromide, 0.0012M, was heated in a 20% water-acetic acid solution to reflux. Trimellitic acid (0.71M) was added.

In series [1] (Example V: durene oxidation reactor effluent cooled to room temperature and filtered), `[Br][Hf]([Br])([Br])[Br]` [Hafnium tetrabromide] came in with a metal remained soluble of 36%. In addition, the “% Soluble” value was determined as 32% in series [1] (Metal in filtrate after durene oxidation); 36% in series [2] (Metal + trimellitic acid in 20% H2O-HOAc at 25° C., solution cooled and solids filtered off, molar basis); 100% in series [2] (Metal + trimellitic acid in 20% H2O-HOAc at 100° C.). Also, the “Appearance of solution after adding trimellitic acid” value in series [2] (0.0012M tetrabromide in 20% water-acetic acid at reflux, trimellitic acid 0.71M added) was “remained clear”.
